Common to all, as to assay type: biochemical
In assay [1] the target is Bovine LOX (Bos taurus (Bovine), UniProt P33072). The experiment in a line: LOX inhibition, peroxidase-coupled Amplex Red amine oxidase assay. To be noted: 30 min preincubation at 37° C., putrescine substrate. The text has this:
(§1) Method to Determine the Ability of Compounds of the Invention to Inhibit LOX and LOXL1-4 from Different Sources
Lysyl oxidase (LOX) is an extracellular copper dependent enzyme which oxidizes peptidyl lysine and hydroxylysine residues in collagen and lysine residues in elastin to produce peptidyl alpha-aminoadipic-delta-semialdehydes. […] There are five LOX family members; these are LOX, LOXL1, LOXL2, LOXL3 and LOXL4. LOX and LOXL family members can be acquired as recombinant active proteins from commercial sources, or extracted from animal tissues like bovine aorta, tendons, pig skin; or prepared from cell cultures. The inhibitory effects of the compounds of the present invention were tested against the given LOX-LOXL preparation using a high-throughput coupled colorimetric method (Holt A. and Palcic M., A peroxidase-coupled continuous absorbance plate-reader assay for flavin monoamine oxidases, copper-containing amine oxidases and related enzymes. Nat. Protoc. 2006; 1: 2498-2505). The assay was developed using either 384 or 96 well format. Briefly, in a standard 384 well plate assay 25 μL of a dilution of any of the isoenzymes and orthologues in 1.2 M urea, 50 mM sodium borate buffer (pH 8.2) were added into each well in the presence of 1 μM mofegiline and 0.5 mM pargyline (to inhibit SSAO and MAO-B and MAO-A, respectively). […] Twenty five μL of a reaction mixture containing twice the KM concentration of putrescine (Sigma Aldrich, e.g. 20 mM for LOX, or 10 mM for LOXL2 and LOXL3), 120 μM Amplex Red (Sigma Aldrich) and 1.5 U/mL horseradish peroxidase (Sigma Aldrich) prepared in 1.2 M urea, 50 mM sodium borate buffer (pH 8.2) were then added to the corresponding wells. The above volumes were doubled in the case of 96 wells plate. The fluorescence (RFU) was read every 2.5 min for 30 min at a range of temperatures from 37° to 45° C., excitation 565 nm and emission 590 (Optima; BMG labtech). The slope of the kinetics for each well was calculated using MARS data analysis software (BMG labtech) and this value was used to deduce the IC50 value (Dotmatics).

The target in assay [2] is Human LOXL2 (Homo sapiens (Human), UniProt Q9Y4K0). The experiment in a line: LOXL2 inhibition, peroxidase-coupled Amplex Red amine oxidase assay. To be noted: 30 min preincubation at 37° C., putrescine substrate.
Source text: as §1
Lysyl oxidase (LOX) is an extracellular copper dependent enzyme which oxidizes peptidyl lysine and hydroxylysine residues in collagen and lysine residues in elastin to produce peptidyl alpha-aminoadipic-delta-semialdehydes. […] There are five LOX family members; these are LOX, LOXL1, LOXL2, LOXL3 and LOXL4. LOX and LOXL family members can be acquired as recombinant active proteins from commercial sources, or extracted from animal tissues like bovine aorta, tendons, pig skin; or prepared from cell cultures. The inhibitory effects of the compounds of the present invention were tested against the given LOX-LOXL preparation using a high-throughput coupled colorimetric method (Holt A. and Palcic M., A peroxidase-coupled continuous absorbance plate-reader assay for flavin monoamine oxidases, copper-containing amine oxidases and related enzymes. Nat. Protoc. 2006; 1: 2498-2505). The assay was developed using either 384 or 96 well format. Briefly, in a standard 384 well plate assay 25 μL of a dilution of any of the isoenzymes and orthologues in 1.2 M urea, 50 mM sodium borate buffer (pH 8.2) were added into each well in the presence of 1 μM mofegiline and 0.5 mM pargyline (to inhibit SSAO and MAO-B and MAO-A, respectively). Test compounds were dissolved in DMSO and tested in a Concentration Response Curve (CRC) with 11 data points, typically in the micromolar or nanomolar range after incubation with the enzyme for 30 min at 37° C. Twenty five μL of a reaction mixture containing twice the KM concentration of putrescine (Sigma Aldrich, e.g. 20 mM for LOX, or 10 mM for LOXL2 and LOXL3), 120 μM Amplex Red (Sigma Aldrich) and 1.5 U/mL horseradish peroxidase (Sigma Aldrich) prepared in 1.2 M urea, 50 mM sodium borate buffer (pH 8.2) were then added to the corresponding wells. The above volumes were doubled in the case of 96 wells plate. The fluorescence (RFU) was read every 2.5 min for 30 min at a range of temperatures from 37° to 45° C., excitation 565 nm and emission 590 (Optima; BMG labtech). The slope of the kinetics for each well was calculated using MARS data analysis software (BMG labtech) and this value was used to deduce the IC50 value (Dotmatics).

In assay [3] the target is Human recombinant SSAO/VAP-1 (Homo sapiens (Human), UniProt Q16853). Nature of the assay: Human recombinant SSAO/VAP-1 amine oxidase inhibition. To be noted: 30 min preincubation at 37° C., 600 μM benzylamine. The method, then: Method to Determine the Ability of Compounds of Formula I to Inhibit Human Recombinant SSAO/VAP-1
Human recombinant SSAO/VAP-1 amine oxidase activity was determined using the coupled colorimetric method as described for monoamine oxidase, copper-containing amine oxidases and related enzymes (Holt A. and Palcic M., A peroxidase-coupled continuous absorbance plate-reader assay for flavin monoamine oxidases, copper-containing amine oxidases and related enzymes. Nat Protoc 2006; 1: 2498-2505). Briefly, a cloned cDNA template corresponding to residues 34-763 of human SSAO/VAP-1, and incorporating a mouse Ig kappa (κ) signal sequence, N-terminal flag epitope tag and tobacco etch virus (TEV) cleavage site, was assembled in a mammalian expression vector (pLO-CMV) by Geneart AG. This vector containing human SSAO/VAP-1 residues was transfected into CHO-K1 glycosylation mutant cell line, Lec 8. A clone stably expressing human SSAO/VAP-1 was isolated and cultured in large scale. Active human SSAO/VAP-1 was purified and recovered using immunoaffinity chromatography. This was used as the source for SSAO/VAP-1 activity. A high-throughput colorimetric assay was developed using either 96 or 384 well format. Briefly, in a standard 96 well plate assay 50 μL of purified human SSAO/VAP-1 (0.25 μg/mL) in 0.1 M sodium phosphate buffer (pH 7.4) was added into each well. Test compounds were dissolved in DMSO and tested in a Concentration Response Curve (CRC) with 4-11 data points, typically in the micromolar or nanomolar range after incubation with human SSAO/VAP-1 for 30 min at 37° C. After 30 min incubation, 50 μL of the reaction mixture containing 600 μM benzylamine (Sigma Aldrich), 120 μM Amplex Red (Sigma Aldrich) and 1.5 U/mL horseradish peroxidase (Sigma Aldrich) prepared in 0.1 M sodium phosphate buffer (pH 7.4) were added to the corresponding well. The fluorescence unit (RFU) was read every 2.5 min for 30 min at 37° C. excitation 565 nm and emission 590 (Optima; BMG labtech). The slope of the kinetics for each well was calculated using MARS data analysis software (BMG labtech) and this value was used to deduce the IC50 value (Dotmatics).

Assay [4] addresses Recombinant human MAO-B (Homo sapiens (Human), UniProt P27338). The experiment in a line: Human recombinant MAO-B inhibition. To be noted: benzylamine 100 μM. The method, then: Method to Determine the Ability of Compounds of Formula I to Inhibit Human Recombinant MAO-B
The specificity of the compounds of this invention was tested by determining their ability to inhibit MAO-B activities in vitro. Recombinant human MAO-B (0.06 mg/mL; Sigma Aldrich) was used as source of MAO-B enzyme activities. The assay was performed in a similar way as for human SSAO/VAP-1 (Example 36) except, the substrate benzylamine was used at 100 μM.

The results in this text go back to patent publication US10717734B2, “Indole and azaindole haloallylamine derivative inhibitors of lysyl oxidases and uses thereof” (PHARMAXIS LTD., priority 2016, dated 2020).

Structures are written as SMILES. Counter-ions that a name gives are not always drawn.

Recombinant human MAO-B, sequence (P27338 whole entry): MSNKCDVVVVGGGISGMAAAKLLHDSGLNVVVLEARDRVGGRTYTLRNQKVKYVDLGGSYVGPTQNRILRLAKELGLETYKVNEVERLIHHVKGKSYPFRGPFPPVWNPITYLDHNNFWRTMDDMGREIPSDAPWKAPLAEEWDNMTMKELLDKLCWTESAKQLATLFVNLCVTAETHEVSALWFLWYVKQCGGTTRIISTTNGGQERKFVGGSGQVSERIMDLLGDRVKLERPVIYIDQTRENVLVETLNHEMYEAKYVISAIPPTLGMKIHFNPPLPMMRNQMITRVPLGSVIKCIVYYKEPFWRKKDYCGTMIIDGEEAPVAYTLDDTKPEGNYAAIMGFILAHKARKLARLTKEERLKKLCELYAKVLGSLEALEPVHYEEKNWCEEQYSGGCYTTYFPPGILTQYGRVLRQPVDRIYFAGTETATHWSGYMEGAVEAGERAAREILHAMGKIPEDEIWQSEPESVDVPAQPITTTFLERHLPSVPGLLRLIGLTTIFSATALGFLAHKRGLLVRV
Bovine LOX, sequence (P33072 170-418): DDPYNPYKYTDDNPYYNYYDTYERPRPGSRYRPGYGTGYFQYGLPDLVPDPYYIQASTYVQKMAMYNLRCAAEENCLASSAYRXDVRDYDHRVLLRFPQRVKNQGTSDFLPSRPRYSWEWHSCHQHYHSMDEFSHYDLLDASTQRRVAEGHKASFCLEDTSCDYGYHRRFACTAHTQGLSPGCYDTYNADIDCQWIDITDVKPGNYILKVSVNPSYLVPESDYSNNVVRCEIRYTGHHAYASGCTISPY
Human LOXL2, sequence (Q9Y4K0 26-774): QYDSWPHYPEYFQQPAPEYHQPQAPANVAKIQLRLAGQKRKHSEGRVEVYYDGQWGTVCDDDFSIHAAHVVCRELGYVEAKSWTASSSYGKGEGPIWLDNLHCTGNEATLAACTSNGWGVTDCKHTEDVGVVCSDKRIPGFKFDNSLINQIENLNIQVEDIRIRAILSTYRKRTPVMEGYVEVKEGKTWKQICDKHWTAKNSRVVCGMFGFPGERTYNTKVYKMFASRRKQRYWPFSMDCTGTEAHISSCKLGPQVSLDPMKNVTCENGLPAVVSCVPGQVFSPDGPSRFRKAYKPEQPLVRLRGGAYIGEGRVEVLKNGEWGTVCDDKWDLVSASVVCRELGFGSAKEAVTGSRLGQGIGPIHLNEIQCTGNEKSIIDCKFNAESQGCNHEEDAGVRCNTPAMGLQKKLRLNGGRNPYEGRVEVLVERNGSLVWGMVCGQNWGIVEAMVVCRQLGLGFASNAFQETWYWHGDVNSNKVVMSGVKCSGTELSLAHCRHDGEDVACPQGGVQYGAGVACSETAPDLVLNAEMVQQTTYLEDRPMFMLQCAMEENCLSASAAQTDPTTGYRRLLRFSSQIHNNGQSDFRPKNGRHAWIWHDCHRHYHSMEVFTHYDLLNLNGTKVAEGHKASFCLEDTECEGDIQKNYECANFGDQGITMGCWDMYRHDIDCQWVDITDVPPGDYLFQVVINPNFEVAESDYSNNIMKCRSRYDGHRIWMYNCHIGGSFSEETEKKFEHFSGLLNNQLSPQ
Human recombinant SSAO/VAP-1, sequence (Q16853 34-763): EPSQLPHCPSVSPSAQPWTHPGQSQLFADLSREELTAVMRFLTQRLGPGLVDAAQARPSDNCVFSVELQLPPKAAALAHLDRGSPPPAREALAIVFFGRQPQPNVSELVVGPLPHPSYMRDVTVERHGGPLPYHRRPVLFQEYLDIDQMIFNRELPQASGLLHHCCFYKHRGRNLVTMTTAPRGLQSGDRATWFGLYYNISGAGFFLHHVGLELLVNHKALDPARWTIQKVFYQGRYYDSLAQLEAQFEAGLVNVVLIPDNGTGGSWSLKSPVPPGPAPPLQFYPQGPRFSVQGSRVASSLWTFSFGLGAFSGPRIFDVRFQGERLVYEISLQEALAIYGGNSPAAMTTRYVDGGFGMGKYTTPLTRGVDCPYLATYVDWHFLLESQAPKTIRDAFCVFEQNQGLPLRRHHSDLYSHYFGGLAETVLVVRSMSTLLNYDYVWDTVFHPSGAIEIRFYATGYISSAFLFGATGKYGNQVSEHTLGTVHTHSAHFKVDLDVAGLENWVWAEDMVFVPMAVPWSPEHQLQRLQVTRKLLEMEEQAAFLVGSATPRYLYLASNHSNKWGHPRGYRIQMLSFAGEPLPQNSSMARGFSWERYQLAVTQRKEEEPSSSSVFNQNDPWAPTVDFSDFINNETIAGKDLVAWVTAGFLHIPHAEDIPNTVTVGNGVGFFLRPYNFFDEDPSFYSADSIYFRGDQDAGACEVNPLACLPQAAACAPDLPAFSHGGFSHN

Take `Cc1c(Cc2ccc(S(=O)(=O)N(C)C)cc2)c2cc(C(=O)O)ccc2n1C/C(F)=C/CN` [Compound 1, (Z)-1-(4-amino-2-fluorobut-2-en-1-yl)-3-(4-(N,N-dimethylsulfamoyl)benzyl)-2-methyl-1H-indole-5-carboxylic acid hydrochloride]: the IC50 (in general, the concentration at which inhibition is half-maximal) in assay [1] was greater than 300 nM; in assay [2], less than 300 nM; in assay [3], greater than 3000 nM; in assay [4], greater than 3000 nM.

On to `COC(=O)c1ccc2c(c1)c(Cc1ccc(S(=O)(=O)N(C)C)cc1)c(C)n2C/C(F)=C/CN` [Compound 2, Methyl (Z)-1-(4-amino-2-fluorobut-2-en-1-yl)-3-(4-(N,N-dimethylsulfamoyl)benzyl)-2-methyl-1H-indole-5-carboxylate hydrochloride], for which the half-inhibitory concentration (IC50) in assay [1] was greater than 300 nM; in assay [2] it was less than 300 nM; in assay [3], greater than 3000 nM; in assay [4], greater than 3000 nM.

Turning to `Cc1c(Cc2ccc(S(=O)(=O)N(C)C)cc2)c2cc(C(=O)N(C)C)ccc2n1C/C(F)=C/CN` [Compound 3, (Z)-1-(4-amino-2-fluorobut-2-en-1-yl)-3-(4-(N,N-dimethylsulfamoyl)benzyl)-N,N,2-trimethyl-1H-indole-5-carboxamide hydrochloride], the concentration for half-maximal inhibition (IC50) in assay [1] is greater than 300 nM; in assay [2], less than 300 nM; in assay [3], greater than 3000 nM; in assay [4], greater than 3000 nM.

On to `Cc1c(Cc2ccc(S(=O)(=O)N(C)C)cc2)c2cc(C(N)=O)ccc2n1C/C(F)=C/CN` [Compound 4, (Z)-1-(4-amino-2-fluorobut-2-en-1-yl)-3-(4-(N,N-dimethylsulfamoyl)benzyl)-2-methyl-1H-indole-5-carboxamide hydrochloride], for which the IC50 in assay [1] is greater than 300 nM; in assay [2], less than 300 nM; in assay [3] it was greater than 3000 nM; in assay [4], greater than 3000 nM.

As to `CN(C)C(=O)c1c(Cc2ccc(S(=O)(=O)N(C)C)cc2)c2ccccc2n1C/C(F)=C/CN` [Compound 5, (Z)-1-(4-amino-2-fluorobut-2-en-1-yl)-3-(4-(N,N-dimethylsulfamoyl)benzyl)-N,N-dimethyl-1H-indole-2-carboxamide hydrochloride], the IC50 in assay [1] is greater than 300 nM; in assay [2], less than 300 nM; in assay [3] it was greater than 3000 nM; in assay [4], greater than 3000 nM.

Turning to `Cc1c(Cc2ccc(S(=O)(=O)N(C)C)cc2)c2cc(S(=O)(=O)N(C)C)ccc2n1C/C(F)=C/CN` [Compound 6, (Z)-1-(4-amino-2-fluorobut-2-en-1-yl)-3-(4-(N,N-dimethylsulfamoyl)benzyl)-N,N,2-trimethyl-1H-indole-5-sulfonamide hydrochloride], the IC50 was greater than 300 nM in assay [1], less than 300 nM in assay [2], greater than 3000 nM in assay [3] and greater than 3000 nM in assay [4].

Regarding `Cc1c(Cc2cccc(S(=O)(=O)N(C)C)c2)c2cc(S(=O)(=O)N(C)C)ccc2n1C/C(F)=C/CN` [Compound 7, (Z)-1-(4-amino-2-fluorobut-2-en-1-yl)-3-(3-(N,N-dimethylsulfamoyl)benzyl)-N,N,2-trimethyl-1H-indole-5-sulfonamide hydrochloride], the IC50 was greater than 300 nM in assay [1], less than 300 nM in assay [2], greater than 3000 nM in assay [3] and greater than 3000 nM in assay [4].

With `Cc1c(Cc2ccc(S(=O)(=O)N(C)C)cc2)c2ncccc2n1C/C(F)=C/CN` [Compound 8, (Z)-4-((1-(4-amino-2-fluorobut-2-en-1-yl)-2-methyl-1H-pyrrolo[3,2-b]pyridin-3-yl)methyl)-N,N-dimethylbenzenesulfonamide dihydrochloride], the concentration for half-maximal inhibition (IC50) in assay [1] was greater than 300 nM; in assay [2], less than 300 nM; in assay [3] it was greater than 3000 nM; in assay [4], greater than 3000 nM.

As for `Cc1ccc2c(n1)c(Cc1ccc(S(=O)(=O)N(C)C)cc1)c(C)n2C/C(F)=C/CN` [Compound 9, (Z)-4-((1-(4-amino-2-fluorobut-2-en-1-yl)-2,5-dimethyl-1H-pyrrolo[3,2-b]pyridin-3-yl)methyl)-N,N-dimethylbenzenesulfonamide dihydrochloride], the half-inhibitory concentration (IC50) in assay [1] is greater than 300 nM; in assay [2], less than 300 nM; in assay [3], greater than 3000 nM; in assay [4], greater than 3000 nM.

Regarding `Cc1c(Cc2ccc(S(C)(=O)=O)cc2)c2ncccc2n1C/C(F)=C/CN` [Compound 10, (Z)-3-fluoro-4-(2-methyl-3-(4-(methylsulfonyl)benzyl)-1H-pyrrolo[3,2-b]pyridin-1-yl)but-2-en-1-amine dihydrochloride], the 50% inhibitory concentration (IC50) in assay [1] is greater than 300 nM; in assay [2], less than 300 nM; in assay [3] it was greater than 3000 nM; in assay [4] it was greater than 3000 nM.

On to `CCS(=O)(=O)c1ccc(Cc2c(C(C)C)n(C/C(F)=C/CN)c3cccnc23)cn1` [Compound 43, (Z)-4-(3-((6-(ethylsulfonyl)pyridin-3-yl)methyl)-2-isopropyl-1H-pyrrolo[3,2-b]pyridin-1-yl)-3-fluorobut-2-en-1-amine dihydrochloride], for which the concentration for half-maximal inhibition (IC50) was greater than 300 nM in assay [1] and less than 300 nM in assay [2].

Turning to `CC(C)c1c(Cc2ccc(S(=O)(=O)C3CC3)nc2)c2ncccc2n1C/C(F)=C/CN` [Compound 44, (Z)-4-(3-((6-(cyclopropylsulfonyl)pyridin-3-yl)methyl)-2-isopropyl-1H-pyrrolo[3,2-b]pyridin-1-yl)-3-fluorobut-2-en-1-amine dihydrochloride], the figures for the IC50 in assay [1] and in assay [2] were greater than 300 nM and less than 300 nM, respectively.
